Results: PMC5418449, “Characterisation of CCT271850, a selective, oral and potent MPS1 inhibitor, used to directly measure in vivo MPS1 inhibition vs therapeutic efficacy” (British Journal of Cancer, 2017)
Like-named read-outs stand apart in the source and are kept apart here.

Legend:
A2780 = system: A2780; design: MTT antiproliferation assay, absorbance at 570 nm, human cancer cell line panel; details: 3-day MTT; inhibitor; read-out: Table S1. IC50 of CCT271850 determined by MTT and clonogenic assays (CA). / All cell lines were tested at least 2 times. / 3-day MTT
Description: (§1) Cell lines were obtained from the American Type Culture Collection and grown in their recommended culture medium, supplemented with 10% FBS at 37 °C in 5% CO2. In-house authentication of cell lines by SNP profiling was carried out and cultured cells were passaged for less than 6 months before replacement from early-passage frozen stocks. Cells were regularly screened for Mycoplasma, using a PCR-based assay (VenorGem; Minerva Biolabs, Berlin, Germany). Transfections were carried out at ∼80% confluency with the plasmids indicated, using Lipofectamine LTX (15338030, Life Technologies, Carlsbad, CA, USA) according to the manufacturer's instructions. Cell proliferation assays were carried out by colorimetric MTT method (Sigma, St Louis, MO, USA) as described elsewhere ([Mosmann, 1983]). Briefly, cells were plated in 96-well plates at 2000–5000 cells per well (depending on the cell line) followed by treatment with two-fold dilutions of 0–25 μM drug for 72 h. Absorbance was measured at 570 nm with the Wallac VICTOR2 1420 Multilabel Counter (PerkinElmer, Waltham, MA, USA). To evaluate CCT271850 antiproliferation effects in a large panel of human cancer cell lines, 91 cell lines were treated for 72 h and 14 days at different compound concentrations in growth inhibition assays. The growth inhibition values as measured by IC50 are summarised in Table 2 and Supplementary Table S1. […] Cell lines from colon and head and neck cancers were among the most sensitive.

TOV21G = system: TOV21G; design: MTT antiproliferation assay, absorbance at 570 nm, human cancer cell line panel; details: 3-day MTT; inhibitor; read-out: Table S1. IC50 of CCT271850 determined by MTT and clonogenic assays (CA). / All cell lines were tested at least 2 times. / 3-day MTT
Description: as §1

HN6 [1] = system: HN6; design: MTT antiproliferation assay, absorbance at 570 nm, human cancer cell line panel; details: 3-day MTT; inhibitor; read-out: Table S1. IC50 of CCT271850 determined by MTT and clonogenic assays (CA). / All cell lines were tested at least 2 times. / 3-day MTT
Description: as §1

Det562 = system: Det562; design: MTT antiproliferation assay, absorbance at 570 nm, human cancer cell line panel; details: 3-day MTT; inhibitor; read-out: Table S1. IC50 of CCT271850 determined by MTT and clonogenic assays (CA). / All cell lines were tested at least 2 times. / 3-day MTT
Description: as §1

PANC-1 = system: PANC-1; design: MTT antiproliferation assay, absorbance at 570 nm, human cancer cell line panel; details: 3-day MTT; inhibitor; read-out: Table S1. IC50 of CCT271850 determined by MTT and clonogenic assays (CA). / All cell lines were tested at least 2 times. / 3-day MTT
Description: as §1

CAL27 = system: CAL27; design: MTT antiproliferation assay, absorbance at 570 nm, human cancer cell line panel; details: 3-day MTT; inhibitor; read-out: Table S1. IC50 of CCT271850 determined by MTT and clonogenic assays (CA). / All cell lines were tested at least 2 times. / 3-day MTT
Description: as §1

OVCAR3 = system: OVCAR3; design: MTT antiproliferation assay, absorbance at 570 nm, human cancer cell line panel; details: 3-day MTT; inhibitor; read-out: Table S1. IC50 of CCT271850 determined by MTT and clonogenic assays (CA). / All cell lines were tested at least 2 times. / 3-day MTT
Description: as §1

PJ41 = system: PJ41; design: MTT antiproliferation assay, absorbance at 570 nm, human cancer cell line panel; details: 3-day MTT; inhibitor; read-out: Table S1. IC50 of CCT271850 determined by MTT and clonogenic assays (CA). / All cell lines were tested at least 2 times. / 3-day MTT
Description: as §1

PATU-8988S = system: PATU-8988S; design: MTT antiproliferation assay, absorbance at 570 nm, human cancer cell line panel; details: 3-day MTT; inhibitor; read-out: Table S1. IC50 of CCT271850 determined by MTT and clonogenic assays (CA). / All cell lines were tested at least 2 times. / 3-day MTT
Description: as §1

TYK-Nu = system: TYK-Nu; design: MTT antiproliferation assay, absorbance at 570 nm, human cancer cell line panel; details: 3-day MTT; inhibitor; read-out: Table S1. IC50 of CCT271850 determined by MTT and clonogenic assays (CA). / All cell lines were tested at least 2 times. / 3-day MTT
Description: as §1

OVCAR8 = system: OVCAR8; design: MTT antiproliferation assay, absorbance at 570 nm, human cancer cell line panel; details: 3-day MTT; inhibitor; read-out: Table S1. IC50 of CCT271850 determined by MTT and clonogenic assays (CA). / All cell lines were tested at least 2 times. / 3-day MTT
Description: as §1

HN3 = system: HN3; design: MTT antiproliferation assay, absorbance at 570 nm, human cancer cell line panel; details: 3-day MTT; inhibitor; read-out: Table S1. IC50 of CCT271850 determined by MTT and clonogenic assays (CA). / All cell lines were tested at least 2 times. / 3-day MTT
Description: as §1

011A = system: 011A; design: MTT antiproliferation assay, absorbance at 570 nm, human cancer cell line panel; details: 3-day MTT; inhibitor; read-out: Table S1. IC50 of CCT271850 determined by MTT and clonogenic assays (CA). / All cell lines were tested at least 2 times. / 3-day MTT
Description: as §1

CaoV3 = system: CaoV3; design: MTT antiproliferation assay, absorbance at 570 nm, human cancer cell line panel; details: 3-day MTT; inhibitor; read-out: Table S1. IC50 of CCT271850 determined by MTT and clonogenic assays (CA). / All cell lines were tested at least 2 times. / 3-day MTT
Description: as §1

EF021 = system: EF021; design: MTT antiproliferation assay, absorbance at 570 nm, human cancer cell line panel; details: 3-day MTT; inhibitor; read-out: Table S1. IC50 of CCT271850 determined by MTT and clonogenic assays (CA). / All cell lines were tested at least 2 times. / 3-day MTT
Description: as §1

Miapaca-2 = system: Miapaca-2; design: MTT antiproliferation assay, absorbance at 570 nm, human cancer cell line panel; details: 3-day MTT; inhibitor; read-out: Table S1. IC50 of CCT271850 determined by MTT and clonogenic assays (CA). / All cell lines were tested at least 2 times. / 3-day MTT
Description: as §1

Hs766T = system: Hs766T; design: MTT antiproliferation assay, absorbance at 570 nm, human cancer cell line panel; details: 3-day MTT; inhibitor; read-out: Table S1. IC50 of CCT271850 determined by MTT and clonogenic assays (CA). / All cell lines were tested at least 2 times. / 3-day MTT
Description: as §1

PATU-8902 = system: PATU-8902; design: MTT antiproliferation assay, absorbance at 570 nm, human cancer cell line panel; details: 3-day MTT; inhibitor; read-out: Table S1. IC50 of CCT271850 determined by MTT and clonogenic assays (CA). / All cell lines were tested at least 2 times. / 3-day MTT
Description: as §1

OVCAR4 = system: OVCAR4; design: MTT antiproliferation assay, absorbance at 570 nm, human cancer cell line panel; details: 3-day MTT; inhibitor; read-out: Table S1. IC50 of CCT271850 determined by MTT and clonogenic assays (CA). / All cell lines were tested at least 2 times. / 3-day MTT
Description: as §1

PT45 = system: PT45; design: MTT antiproliferation assay, absorbance at 570 nm, human cancer cell line panel; details: 3-day MTT; inhibitor; read-out: Table S1. IC50 of CCT271850 determined by MTT and clonogenic assays (CA). / All cell lines were tested at least 2 times. / 3-day MTT
Description: as §1

PA-1 = system: PA-1; design: MTT antiproliferation assay, absorbance at 570 nm, human cancer cell line panel; details: 3-day MTT; inhibitor; read-out: Table S1. IC50 of CCT271850 determined by MTT and clonogenic assays (CA). / All cell lines were tested at least 2 times. / 3-day MTT
Description: as §1

RMG1 = system: RMG1; design: MTT antiproliferation assay, absorbance at 570 nm, human cancer cell line panel; details: 3-day MTT; inhibitor; read-out: Table S1. IC50 of CCT271850 determined by MTT and clonogenic assays (CA). / All cell lines were tested at least 2 times. / 3-day MTT
Description: as §1

CFPAC-1 = system: CFPAC-1; design: MTT antiproliferation assay, absorbance at 570 nm, human cancer cell line panel; details: 3-day MTT; inhibitor; read-out: Table S1. IC50 of CCT271850 determined by MTT and clonogenic assays (CA). / All cell lines were tested at least 2 times. / 3-day MTT
Description: as §1

O13 = system: O13; design: MTT antiproliferation assay, absorbance at 570 nm, human cancer cell line panel; details: 3-day MTT; inhibitor; read-out: Table S1. IC50 of CCT271850 determined by MTT and clonogenic assays (CA). / All cell lines were tested at least 2 times. / 3-day MTT
Description: as §1

HN6 [2] = system: HN6; design: clonogenic colony formation assay, growth inhibition IC50; details: 14-day clonogenic; read-out: Table S1. IC50 of CCT271850 determined by MTT and clonogenic assays (CA). / All cell lines were tested at least 2 times. / 14-day CA
Description: To evaluate CCT271850 antiproliferation effects in a large panel of human cancer cell lines, 91 cell lines were treated for 72 h and 14 days at different compound concentrations in growth inhibition assays. The growth inhibition values as measured by IC50 are summarised in Table 2 and Supplementary Table S1. […] Cell lines from colon and head and neck cancers were among the most sensitive.

With `COc1cc(-c2cnn(C)c2)ccc1Nc1ncc2ccnc(N[C@@H](C)C(C)(C)C)c2n1` [34h, CCT271850] as the molecule, how does the IC50 (A2780) read?
The IC50 was 0.137 µM.

What about the IC50 (TOV21G) of the same molecule?
The IC50 was 0.753 µM.

What about the IC50 (HN6 [1]) of the same molecule?
Its IC50 is 0.33 µM.

And the IC50 (Det562)?
The IC50 was 1.31 µM.

And the IC50 (PANC-1)?
The IC50 was 1.38 µM.

What about the IC50 (CAL27) of the same molecule?
Its IC50 is 0.227 µM.

What about the IC50 (OVCAR3) of the same molecule?
Its IC50 is greater than 100 µM.

And the IC50 (PJ41)?
The IC50 was 0.52 µM.

What about the IC50 (PATU-8988S) of the same molecule?
Its IC50 is 2.02 µM.

What about the IC50 (TYK-Nu) of the same molecule?
Its IC50 is 0.99 µM.

And the IC50 (OVCAR8)?
The IC50 was 1.23 µM.

And the IC50 (HN3)?
Its IC50 is 0.845 µM.

What about the IC50 (011A) of the same molecule?
Its IC50 is 1.62 µM.

What about the IC50 (CaoV3) of the same molecule?
The IC50 was 0.36 µM.

And the IC50 (EF021)?
Its IC50 is 0.751 µM.

And the IC50 (Miapaca-2)?
Its IC50 is 0.245 µM.

And the IC50 (Hs766T)?
Its IC50 is 1.9 µM.

What about the IC50 (PATU-8902) of the same molecule?
Its IC50 is 0.51 µM.

What about the IC50 (OVCAR4) of the same molecule?
Its IC50 is 4.95 µM.

And the IC50 (PT45)?
Its IC50 is 0.96 µM.

And the IC50 (PA-1)?
Its IC50 is 2.25 µM.

What about the IC50 (RMG1) of the same molecule?
Its IC50 is 0.111 µM.

What about the IC50 (CFPAC-1) of the same molecule?
Its IC50 is 0.91 µM.

What about the IC50 (O13) of the same molecule?
Its IC50 is 1.26 µM.

And the IC50 (HN6 [2])?
The IC50 was 15 µM.
